Results: patent US20210284618A1, “FURANOCHALCONES AS INHIBITORS OF CYP1A1, CYP1A2 AND CYP1B1 FOR CANCER CHEMOPREVENTION” (Council of Scientific & Industrial Research, priority 2016, published 2021)

Target: T1, CYP2B6 (Homo sapiens, UniProt P20813)
T1 construct: host or cells: yeast microsomes (Saccharosomes)
T1 sequence (P20813 1-491): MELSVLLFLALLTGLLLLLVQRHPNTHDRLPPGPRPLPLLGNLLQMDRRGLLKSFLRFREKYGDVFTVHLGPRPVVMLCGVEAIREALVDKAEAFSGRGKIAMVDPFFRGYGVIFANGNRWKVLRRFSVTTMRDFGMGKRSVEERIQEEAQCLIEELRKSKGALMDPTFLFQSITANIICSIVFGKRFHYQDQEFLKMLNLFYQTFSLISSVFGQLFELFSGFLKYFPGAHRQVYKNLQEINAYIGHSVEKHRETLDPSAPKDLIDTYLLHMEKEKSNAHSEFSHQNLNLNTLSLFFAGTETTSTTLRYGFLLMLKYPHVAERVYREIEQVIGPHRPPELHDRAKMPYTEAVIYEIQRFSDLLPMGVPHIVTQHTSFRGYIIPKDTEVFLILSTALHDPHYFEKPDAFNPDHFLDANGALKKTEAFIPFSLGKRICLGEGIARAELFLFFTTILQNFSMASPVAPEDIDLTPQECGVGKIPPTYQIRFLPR
Test: CYP2B6 inhibition in Saccharosomes
Assay type: biochemical
Details: Saccharosomes containing CYP2B6

- inhibition at 20 µM: 15%
SMILES: COc1c(C(=O)/C=C/c2cccnc2)c(O)c(OC)c2occc12 [Compound 8, 3-(4,7-dimethoxy-6-hydroxybenzofuran-5-yl)-1-(pyridin-3-yl)-3-oxopropene]
